We go through 5 compounds from PMC4659573 (PLoS ONE, 2015).

One assay has as its system primary CLL cells. Kind of assay: CLL cell apoptosis, Annexin V staining within the CD19+ subset, flow cytometry. In kind it is cell-based, human. Particulars: for CLL cell apoptosis with selective CDK inhibitors: alone or in combination, data not shown. An excerpt: Following approval by the Committee for Protection of Human Subjects at Dartmouth-Hitchcock Medical Center, the Institutional Review Board at Oregon Health and Science University and written consent of patients, peripheral blood was obtained from patients with B-CLL at the hematology clinics at the above institutions (N = 52). The mean time from CLL diagnosis to entry of study was 5 years; 39 patients (75%) were previously untreated. Isolation of peripheral blood mononuclear cells (PMBCs) was performed using standard Ficoll-Hypaque technique (Amersham, Piscataway, NJ). CLL samples had more than 90% CD5^+/CD19^+ cells, as determined by flow cytometry. CLL cells were cultured in RMPI-1640 medium supplemented with 15% fetal bovine serum, 100 U/mL penicillin, 100 μg/mL streptomycin, 2 mM L-glutamine, 25 mM HEPES, 100 μM non-essential amino acids and 1 mM sodium pyruvate (Lonza, Walkersville, MD). 10 CLL samples with 17p deletion were obtained from the CLL Center at Dana-Farber Cancer Institute. All experiments were performed with freshly isolated cells except the viability assays involving the latter, which were performed with viably frozen cells.
CLL cell apoptosis was measured in duplicates as previously described using the ApoScreen Annexin V Apoptosis Kit. Briefly, cells were resuspended in 150 μl of Annexin V binding buffer containing 1 μl of Annexin V-PE, 1 μl of 7-aminoactinomycin D (7-AAD) and 1 μl of CD19-mAbs (Southern Biotech, Birmingham, AL) followed by flow cytometry on a MACSQuant flow cytometer (Miltenyi Biotec, San Diego, CA). Flow cytometry analysis was performed using FlowJo software (Tree Star, Ashland, OR). P1446A was provided by Piramal Healthcare Ltd. (Mumbai, India). JNK Inhibitor VIII, SP600125, SB203580, ABT-737 and PD0332991 were obtained from Selleck Chemicals (Houston, TX) and CVT-313—from Santa Cruz Biotechnology (Dallas, TX).
Here and subsequently, apoptosis was determined by Annexin V staining within the CD19^+ subset of cells. Horizontal lines represent the mean. […] IC50 value was determined for CLL samples with mutated (N = 13) and unmutated IGHV (N = 10). […] Cytogenetics markers were determined by fluorescent in situ hybridization [no marker, 11q, trisomy 12, 13q, 17p]. Horizontal lines represent the mean. […] Since we noted a significant variation in baseline apoptosis between patient samples, normalization to the time-matched untreated controls was performed to more clearly reflect the drug-induced apoptosis. *- p<0.05 compared to untreated control.

Assay [1] addresses T1, Glycogen synthase 3ß (GSK3ß) (Homo sapiens, UniProt P49841).
T1 construct: purchased ProQinase, Freiburg, Germany
As to the kind of experiment: biochemical kinase profiling (S1 Fig). The protocol: (§1) Supplementary file pone.0143685.s001.pptx: S1 Fig Determination of selectivity of P1446A-05 was established using biochemical kinase profiling (Kinase 400-Profiler, ProQinase, Freiburg, Germany). IC50 values were determined for the 37 kinases whose activity was inhibited by ≥60% at a drug concentration of 10 μM or less (as shown). […] (PPTX) Click here for additional data file.

The test system of a further assay is PIM kinase isoforms. Kind of assay: biochemical kinase profiling (S1 Fig). The protocol:
as §1

The test system of assay [2] is kinases (Kinase 400-Profiler panel). Kind of assay: kinase selectivity profiling (Kinase 400-Profiler, ProQinase). In kind it is biochemical. The note with it: at a drug concentration of 10 μM or less. On the procedure:
as §1

In another assay the target is T2, CDK4 (Homo sapiens, UniProt P11802).
T2 construct: purchased ProQinase, Freiburg, Germany
Kind of assay: biochemical kinase profiling (Kinase 400-Profiler, ProQinase). The note with it: S1 Fig. The protocol:
as §1

A further assay deals with T3, CDK8 (Homo sapiens, UniProt P49336).
T3 construct: purchased ProQinase, Freiburg, Germany
The description is as above. The note with it: S1 Fig. The protocol: as §1

Another assay concerns the target T4, CDK5 (Homo sapiens, UniProt Q00535).
T4 construct: purchased ProQinase, Freiburg, Germany
The assay is described as above. Particulars: S1 Fig. The protocol: as §1

In a further assay the target is T5, CDK1 (Homo sapiens, UniProt P06493).
T5 construct: purchased ProQinase, Freiburg, Germany
Described as above. Particulars: S1 Fig. The protocol:
as §1

The next assay concerns the target T6, CDK6 (Homo sapiens, UniProt Q00534).
T6 construct: purchased ProQinase, Freiburg, Germany
Described as above. The note with it: S1 Fig. On the procedure:
as §1

The next assay has as its target T7, CDK2 (Homo sapiens, UniProt P24941).
T7 construct: purchased ProQinase, Freiburg, Germany
The description is as above. Particulars: S1 Fig. The protocol: as §1

For the next assay, the system named is HCT-116. The arrangement: method as in Piramal Healthcare Ltd., proprietary information; 24. Particulars: HCT-116 xenograft mouse model; ref Piramal Healthcare Ltd., proprietary information; 24; cited from earlier work.
In the next assay the test system is H-460. More on the design: method as in Piramal Healthcare Ltd., proprietary information; 24. Particulars: H-460 xenograft mouse model; ref Piramal Healthcare Ltd., proprietary information; 24; cited from earlier work.
For a further assay, the system named is relapsed/refractory CLL. Particulars: cited from earlier work.

pIC50: −log10 of the molar value.

T4 sequence (Q00535 whole entry): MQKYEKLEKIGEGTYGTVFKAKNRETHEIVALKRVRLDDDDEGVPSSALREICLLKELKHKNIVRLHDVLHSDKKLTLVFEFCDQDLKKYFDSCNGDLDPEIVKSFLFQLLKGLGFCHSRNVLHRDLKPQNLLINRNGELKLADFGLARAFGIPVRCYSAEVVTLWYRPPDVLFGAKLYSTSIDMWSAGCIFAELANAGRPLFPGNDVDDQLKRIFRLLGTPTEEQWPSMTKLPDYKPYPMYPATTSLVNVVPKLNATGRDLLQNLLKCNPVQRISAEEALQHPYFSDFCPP
T4 sequence (Q15078 99-307 partner limits assumed): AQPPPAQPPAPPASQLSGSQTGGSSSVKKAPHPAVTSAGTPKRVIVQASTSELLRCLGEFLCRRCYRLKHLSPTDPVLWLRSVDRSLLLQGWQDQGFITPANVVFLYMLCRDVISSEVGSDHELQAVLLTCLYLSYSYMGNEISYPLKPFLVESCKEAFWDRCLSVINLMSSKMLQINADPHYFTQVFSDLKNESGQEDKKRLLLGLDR
T6 sequence (Q00534 whole entry): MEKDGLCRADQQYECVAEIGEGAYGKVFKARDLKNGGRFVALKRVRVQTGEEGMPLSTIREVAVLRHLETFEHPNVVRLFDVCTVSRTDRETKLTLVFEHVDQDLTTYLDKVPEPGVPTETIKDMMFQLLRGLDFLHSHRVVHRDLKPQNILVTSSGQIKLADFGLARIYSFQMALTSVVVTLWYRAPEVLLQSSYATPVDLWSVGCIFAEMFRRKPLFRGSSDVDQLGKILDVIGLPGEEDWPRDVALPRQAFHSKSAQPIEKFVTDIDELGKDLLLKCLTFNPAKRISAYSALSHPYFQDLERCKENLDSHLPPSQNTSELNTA
T6 sequence (P24385 whole entry partner): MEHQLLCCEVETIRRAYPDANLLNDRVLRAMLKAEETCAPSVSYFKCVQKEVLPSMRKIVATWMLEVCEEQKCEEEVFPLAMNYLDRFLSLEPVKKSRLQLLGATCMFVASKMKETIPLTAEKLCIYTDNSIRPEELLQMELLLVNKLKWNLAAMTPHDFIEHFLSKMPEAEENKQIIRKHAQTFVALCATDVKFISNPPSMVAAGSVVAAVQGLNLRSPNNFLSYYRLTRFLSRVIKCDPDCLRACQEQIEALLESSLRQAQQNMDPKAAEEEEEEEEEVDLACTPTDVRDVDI
T5 sequence (P06493 whole entry): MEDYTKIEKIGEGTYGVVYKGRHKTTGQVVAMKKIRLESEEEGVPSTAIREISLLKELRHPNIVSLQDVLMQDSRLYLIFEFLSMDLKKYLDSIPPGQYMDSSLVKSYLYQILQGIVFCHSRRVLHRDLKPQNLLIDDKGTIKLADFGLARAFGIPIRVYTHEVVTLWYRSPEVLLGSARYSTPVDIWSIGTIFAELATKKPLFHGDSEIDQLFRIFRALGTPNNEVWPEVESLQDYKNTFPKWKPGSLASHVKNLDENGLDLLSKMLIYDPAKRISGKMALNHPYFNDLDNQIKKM
T5 sequence (P14635 whole entry partner): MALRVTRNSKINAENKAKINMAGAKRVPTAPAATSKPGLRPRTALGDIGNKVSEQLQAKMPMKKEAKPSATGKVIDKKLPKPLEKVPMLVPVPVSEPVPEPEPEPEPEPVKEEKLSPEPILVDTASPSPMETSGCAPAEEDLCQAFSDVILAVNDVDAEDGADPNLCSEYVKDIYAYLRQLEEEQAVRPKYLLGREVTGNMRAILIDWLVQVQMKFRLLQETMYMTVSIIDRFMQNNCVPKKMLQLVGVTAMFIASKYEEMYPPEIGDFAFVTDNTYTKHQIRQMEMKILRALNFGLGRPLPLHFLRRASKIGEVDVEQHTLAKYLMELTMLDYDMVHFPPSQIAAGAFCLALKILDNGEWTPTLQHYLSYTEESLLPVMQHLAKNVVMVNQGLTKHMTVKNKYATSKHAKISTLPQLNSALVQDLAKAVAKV
T3 sequence (P49336 whole entry): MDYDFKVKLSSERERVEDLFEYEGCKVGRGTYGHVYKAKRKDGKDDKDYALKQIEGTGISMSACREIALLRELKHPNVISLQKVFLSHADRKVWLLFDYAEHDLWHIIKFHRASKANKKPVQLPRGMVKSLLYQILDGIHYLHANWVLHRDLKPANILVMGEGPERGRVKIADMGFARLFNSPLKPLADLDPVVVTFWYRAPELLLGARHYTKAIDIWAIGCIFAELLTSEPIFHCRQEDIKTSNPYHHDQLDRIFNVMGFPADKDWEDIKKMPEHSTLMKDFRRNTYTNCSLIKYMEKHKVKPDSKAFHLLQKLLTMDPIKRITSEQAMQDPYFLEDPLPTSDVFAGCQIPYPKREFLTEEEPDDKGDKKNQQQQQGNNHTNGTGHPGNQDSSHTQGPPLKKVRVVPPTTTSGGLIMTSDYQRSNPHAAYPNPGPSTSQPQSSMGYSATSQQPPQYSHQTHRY
T3 sequence (P24863 whole entry partner): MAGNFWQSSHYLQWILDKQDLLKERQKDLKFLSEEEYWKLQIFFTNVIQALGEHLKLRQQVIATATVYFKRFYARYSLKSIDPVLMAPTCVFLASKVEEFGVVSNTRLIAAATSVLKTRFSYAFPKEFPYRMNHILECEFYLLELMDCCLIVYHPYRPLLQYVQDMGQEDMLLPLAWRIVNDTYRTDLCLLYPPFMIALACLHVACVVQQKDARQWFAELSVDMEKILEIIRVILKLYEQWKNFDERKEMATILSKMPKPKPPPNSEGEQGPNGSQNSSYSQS
T2 sequence (P11802 whole entry): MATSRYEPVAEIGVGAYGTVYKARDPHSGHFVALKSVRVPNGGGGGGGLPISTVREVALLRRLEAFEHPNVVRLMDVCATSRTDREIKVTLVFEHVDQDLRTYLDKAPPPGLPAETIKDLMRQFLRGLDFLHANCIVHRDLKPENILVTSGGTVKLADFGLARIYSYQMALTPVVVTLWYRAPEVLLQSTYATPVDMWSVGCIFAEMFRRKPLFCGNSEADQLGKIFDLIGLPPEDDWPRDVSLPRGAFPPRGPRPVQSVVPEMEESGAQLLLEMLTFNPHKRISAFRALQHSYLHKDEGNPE
T2 sequence (P24385 whole entry partner): as the sequence (P24385 whole entry partner) above
T1 sequence (P49841 whole entry): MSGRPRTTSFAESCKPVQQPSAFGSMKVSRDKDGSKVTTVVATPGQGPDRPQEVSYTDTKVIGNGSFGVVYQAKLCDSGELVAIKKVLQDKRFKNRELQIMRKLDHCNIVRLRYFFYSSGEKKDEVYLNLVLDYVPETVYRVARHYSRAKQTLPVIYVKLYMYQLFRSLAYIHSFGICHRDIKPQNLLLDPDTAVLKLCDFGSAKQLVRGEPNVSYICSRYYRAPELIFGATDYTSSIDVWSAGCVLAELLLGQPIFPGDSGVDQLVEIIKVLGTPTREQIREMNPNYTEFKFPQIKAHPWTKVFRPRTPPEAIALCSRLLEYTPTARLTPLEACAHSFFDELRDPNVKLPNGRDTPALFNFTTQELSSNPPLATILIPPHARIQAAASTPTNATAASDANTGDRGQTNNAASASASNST

As for `CC(=O)c1c(C)c2cnc(Nc3ccc(N4CCNCC4)cn3)nc2n(C2CCCC2)c1=O` [PD0332991, reference compound], the “CLL cell apoptosis with selective CDK inhibitors” value in the assay on primary CLL cells is “did not lead to CLL cell apoptosis”.

On to `CN1CC[C@@H](c2c(O)cc(O)c3c(=O)cc(-c4ccc(C(F)(F)F)cc4Cl)oc23)[C@@H]1CO` [P1446A], for which the “cells that underwent apoptosis” value in the assay with primary CLL cells (0.5 μM, 24 hour incubation, N = 10, vehicle control 29.2±2.0%) stood at 47.2±3.5%. In addition, in the assay on primary CLL cells (1.5 μM, 24 hour incubation, N = 10), the “apoptosis of CLL cells” value worked out at 83.3±3.3%. The “concentration range of inhibition in vitro” value (in [1]; in the assay on PIM kinase isoforms) was “nanomolar concentration range” in each case. Further, the “number of kinases whose activity was inhibited by ≥60%” value in assay [2] came to 37. Besides, the pIC50 at CDK4 was 7.05; against CDK8 it was 7.92; at CDK5, 6.68; on CDK1, 7.60; at CDK6, 6.68; at CDK2 it was 6.74. For the same compound, the “tumor growth in xenograft” value with HCT-116 and in the assay with H-460 was “restricted growth” in each case.

`CN1CC[C@H](c2c(O)cc(O)c3c(=O)cc(-c4ccccc4Cl)oc23)[C@H](O)C1` [flavopiridol]: the patients with responses in the assay with relapsed/refractory CLL is on record as 53%.

Consider `CCc1cnn2c(NCc3ccc[n+]([O-])c3)cc(N3CCCC[C@H]3CCO)nc12` [Dinaciclib], for which the overall response rate in the assay with relapsed/refractory CLL (patients with relapsed/refractory CLL) is listed as 54%.

With `COc1ccc(CNc2nc(N(CCO)CCO)nc3c2ncn3C(C)C)cc1` [CVT-313, reference compound], the “CLL cell apoptosis with selective CDK inhibitors” value in the assay on primary CLL cells is “did not lead to CLL cell apoptosis”.
